The text below walks through data of US12502380B2, “MrgprX2 antagonists for the treatment of inflammatory disorders” (Dermira, Inc., priority 2019, dated 2025).

This experiment has as its target T1, Human MrgprX2 (Homo sapiens, UniProt Q96LB1).
T1 construct: expressed in transfected cells
T1 sequence (Q96LB1 1-330): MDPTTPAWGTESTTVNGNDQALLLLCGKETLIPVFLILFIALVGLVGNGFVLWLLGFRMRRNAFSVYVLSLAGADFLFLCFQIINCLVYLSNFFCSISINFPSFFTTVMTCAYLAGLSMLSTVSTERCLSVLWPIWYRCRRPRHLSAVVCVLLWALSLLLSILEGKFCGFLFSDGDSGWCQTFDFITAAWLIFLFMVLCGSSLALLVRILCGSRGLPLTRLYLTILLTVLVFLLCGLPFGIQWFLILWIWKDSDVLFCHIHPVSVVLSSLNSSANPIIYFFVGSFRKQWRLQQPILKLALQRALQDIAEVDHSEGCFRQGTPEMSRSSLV
Put plainly: Human MrgprX2 antagonist FLIPR intracellular calcium mobilization assay. Format: cell-based. Particulars: antagonist activity, recombinant hMrgpMRGPRX2 expressing cells, read-out: Human MrgprX2 Antagonist pIC50 (converted). The method in brief: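 Antagonist activity was read as inhibition of intracellular calcium mobilization (FLIPR) in recombinant cells expressing human MrgprX2. Potency was also checked in LAD-2 human mast cells with endogenous receptor, and orthologue activity in cells expressing mouse MrgprB2, mouse MrgprA1, and gerbil, Chinese hamster and cynomolgus orthologues.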
With `NS(=O)(=O)N1CCC[C@@H]1C(=O)Nc1ncc(Cc2cccc(F)c2)s1` [Compound E057, (2R)—N-[5-[(3-fluorophenyl)methyl]thiazol-2-yl]-1-sulfamoyl-pyrrolidine-2-carboxamide], the IC50 is 31.6 nM.
The result for `CC(C)C(=O)Nc1ncc(Cc2ccc(F)cc2F)s1` [Compound E042] reads 39.8 nM; that for `C[C@H](O)CN(C)C(=O)Nc1ncc(Cc2ccc(C#N)cc2)s1` [Compound E145], 3160 nM.
The figure for `C[C@]1(C(=O)Nc2ncc(Cc3cccc(Cl)c3)s2)CCOC1` (single isomer, unassigned) [Compound E051, N-[5-[(3-chlorophenyl)methyl]thiazol-2-yl]-3-methyl-tetrahydrofuran-3-carboxamide] is 100 nM.
The result for `CC1(C(=O)Nc2ncc(Cc3cccc(Cl)c3)s2)CCOCC1` [Compound E023] reads 126 nM.
On to `CC(C)(O)C(=O)Nc1ncc(Cc2ccccc2F)s1` [Compound E005], for which the IC50 was 3980 nM.
The figure for `O=C(Nc1ncc(Cc2cccc(F)c2)s1)N1CCCC1CO` (stereo not shown) [Compound E104] is 316 nM; for `C[C@H](C(=O)Nc1ncc(Cc2cccc(F)c2)s1)N(C)S(N)(=O)=O` [Compound E068] it is 631 nM.
`CC(C)NC(=O)c1nc(F)c(Cc2ccc(F)cc2)s1` [Compound E220, 4-fluoro-5-[(4-fluorophenyl)methyl]-N-isopropyl-thiazole-2-carboxamide]: the IC50 was 6310 nM.
The result for `CC(CO)N(C)C(=O)Nc1ncc(Cc2cccc(F)c2)s1` (stereo not shown) [Compound E128] reads 31.6 nM.
For `CN(CC(O)CO)C(=O)Nc1ncc(Cc2cccc(F)c2)s1` (stereo not shown) [Compound E106], the IC50 is 3160 nM.
The figure for `CN(C[C@@H](O)C(F)(F)F)C(=O)Nc1ncc(Cc2cccc(F)c2)s1` [Compound E111] is 3.16 nM; for `CC(O)CN(C)C(=O)Nc1ncc(Cc2ccccc2F)s1` (stereo not shown) [Compound E099] it is 398 nM; for `O=C(CN1CCCCC1)Nc1ncc(Cc2ccccc2F)s1` [Compound E013] it is 398 nM.
Consider `C[C@H](O)CN(C)C(=O)Nc1ncc(Oc2ccccc2)s1` [Compound E149], for which the IC50 is 2 nM.
For the compound `CC(C)(C#N)C(=O)Nc1ncc(Cc2cccc(Cl)c2)s1` [Compound E034], the IC50 was 158 nM.
With `C[C@H](O)CN(C)C(=O)Nc1ncc(Oc2cncc(F)c2)s1` [Compound E176], the IC50 was 50.1 nM.
As for `C[C@H](O)CN(C)C(=O)Nc1ncc(Cc2cccc(F)c2)s1` [Compound E101], the IC50 was 39.8 nM.
The result for `CCN(C[C@H](C)O)C(=O)Nc1ncc(Oc2ccnc(F)c2)s1` [Compound E185] reads 2 nM; that for `CCN(C[C@@H](C)O)C(=O)Nc1ncc(Oc2cc(F)cc(C#N)c2)s1` [Compound E210], 2.51 nM.
In the case of `CCN(C[C@H](C)O)C(=O)Nc1ncc(Oc2ccc(C#N)c(F)c2)s1` [Compound E163], the IC50 was 1 nM.
The result for `CCN(C[C@H](C)O)C(=O)Nc1ncc(Oc2ccc(C#N)cc2F)s1` [Compound E190] reads 6.31 nM; that for `CCN(C[C@H](C)O)C(=O)Nc1ncc(Oc2cccc(C#N)c2F)s1` [Compound E197], 50.1 nM; that for `CC(C)N(C)C(=O)c1ncc(Cc2cccc(F)c2)s1` [Compound E218, 5-[(3-fluorophenyl)methyl]-N-isopropyl-N-methyl-thiazole-2-carboxamide], 7940 nM.
As to `CCN(C[C@H](C)O)C(=O)Nc1ncc(Cc2cc(F)cc(C#N)c2)s1` [Compound E146], the IC50 was 39.8 nM.
Consider `CC1(C(=O)Nc2ncc(Cc3ccccc3F)s2)CCOC1` (stereo not shown) [Compound E014], for which the IC50 is 631 nM.
The result for `CC(F)(F)C(=O)Nc1ncc(Cc2ccccc2F)s1` [Compound E022] reads 5010 nM.
On to `C[C@H](O)CN(C)C(=O)Nc1ncc(Cc2ccc(F)cc2)s1` [Compound E130], for which the IC50 is 200 nM.
The result for `CCN(C[C@H](C)O)C(=O)Nc1nc(C#N)c(Oc2ccc(F)cc2)s1` [Compound E207] reads 1000 nM.
The result for `CC1(C(=O)Nc2ncc(CC3CCCC3)s2)CCOCC1` [Compound E097] reads 2000 nM; that for `C[C@@]1(C(=O)Nc2ncc(Cc3cccc(Cl)c3)s2)CCOC1` (single isomer, unassigned) [Compound E050, N-[5-[(3-chlorophenyl)methyl]thiazol-2-yl]-3-methyl-tetrahydrofuran-3-carboxamide], 63.1 nM.
The result for `C[C@H](O)CN(C)C(=O)Nc1ncc(Oc2ccc(C#N)cc2F)s1` [Compound E189] reads 398 nM.
Consider `CC(C(=O)Nc1ncc(Cc2ccccc2F)s1)N1CCOCC1` (stereo not shown) [Compound E009], for which the IC50 was 316 nM.
Take `C[C@H](O)CN(C)C(=O)Nc1ncc(Oc2ccc(F)cc2)s1` [Compound E151]: the IC50 was 2 nM.
The figure for `CC(C)(C#N)C(=O)Nc1ncc(Cc2ccccc2F)s1` [Compound E012] is 631 nM.
The result for `CC1(C(=O)Nc2ncc(Cc3cc(F)cc(F)c3)s2)CCOC1` (stereo not shown) [Compound E046, N-[5-[(3,5-difluorophenyl)methyl]thiazol-2-yl]-3-methyl-tetrahydrofuran-3-carboxamide] reads 5.01 nM; that for `CC(C)C(=O)Nc1ncc(Cc2cccc(C(F)(F)F)c2)s1` [Compound E002], 7940 nM.
